ChEMBL document CHEMBL1201862, “PubChem BioAssay data set” (2004)
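Tested at 5 concentrations; 48 h exposure; 96-well plates; endpoints linearly interpolated, else capped at highest concentration. The concentration for 50% growth inhibition is given as GI50.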 Calls of active or inactive are those of the source. No stated cut-off is given here; in the data, active = GI50 up to about 1.1 µM and inactive = higher.

What was measured:
Assay in all cases: NCI tumour cell line growth inhibition, 48 h
HOP-92 = test system: HOP-92
CAKI-1 = test system: CAKI-1
HCC 2998 = test system: HCC 2998
MDA-MB-435 = test system: MDA-MB-435
OVCAR-5 = test system: OVCAR-5
SF-295 = test system: SF-295
SK-MEL-28 = test system: SK-MEL-28
Hs-578T = test system: Hs-578T
786-0 = test system: 786-0
UACC-62 = test system: UACC-62
EKVX = test system: EKVX
DU-145 = test system: DU-145
KM12 = test system: KM12
SNB-19 = test system: SNB-19
HCT-15 = test system: HCT-15
TK-10 = test system: TK-10
SW-620 = test system: SW-620
A549 = test system: A549
LOX IMVI = test system: LOX IMVI
Malme-3M = test system: Malme-3M
IGROV-1 = test system: IGROV-1
NCI-H522 = test system: NCI-H522
SK-MEL-2 = test system: SK-MEL-2
SR = test system: SR
T47D = test system: T47D
CCRF-CEM = test system: CCRF-CEM
BT-549 = test system: BT-549
UACC-257 = test system: UACC-257
HL-60 = test system: HL-60
ACHN = test system: ACHN
SK-MEL-5 = test system: SK-MEL-5
A498 = test system: A498
NCI/ADR-RES = test system: NCI/ADR-RES
MCF7 = test system: MCF7
OVCAR-4 = test system: OVCAR-4
HOP-62 = test system: HOP-62
HCT-116 = test system: HCT-116
NCI-H23 = test system: NCI-H23
PC-3 = test system: PC-3
OVCAR-3 = test system: OVCAR-3
SNB-75 = test system: SNB-75
SF-539 = test system: SF-539
SK-OV-3 = test system: SK-OV-3
U-251 = test system: U-251
COLO 205 = test system: COLO 205
UO-31 = test system: UO-31
SN12C = test system: SN12C
HT-29 = test system: HT-29
OVCAR-8 = test system: OVCAR-8
NCI-H460 = test system: NCI-H460
MDA-MB-231 = test system: MDA-MB-231
RXF 393 = test system: RXF 393
K562 = test system: K562
M14 = test system: M14
NCI-H226 = test system: NCI-H226
RPMI-8226 = test system: RPMI-8226
MDA-N = test system: MDA-N
SF-268 = test system: SF-268
MOLT-4 = test system: MOLT-4

## CC(=O)c1ccc(Oc2c3ccccc3nc3ccccc23)cc1
HOP-92
  GI50: 12.4 µM (inactive)
CAKI-1
  GI50: 4.69 µM (inactive)
HCC 2998
  GI50: 9.48 µM (inactive)
MDA-MB-435
  GI50: 3.27 µM (inactive)
OVCAR-5
  GI50: 9.68 µM (inactive)
SF-295
  GI50: 14.6 µM (inactive)
SK-MEL-28
  GI50: 14.7 µM (inactive)
Hs-578T
  GI50: 8.61 µM (inactive)
786-0
  GI50: 3.4 µM (inactive)
UACC-62
  GI50: 6.41 µM (inactive)
EKVX
  GI50: 17.5 µM (inactive)
DU-145
  GI50: 4.5 µM (inactive)
KM12
  GI50: 7 µM (inactive)
SNB-19
  GI50: 18.7 µM (inactive)
HCT-15
  GI50: 4.01 µM
TK-10
  GI50: 6.76 µM (inactive)
SW-620
  GI50: 4.33 µM (inactive)
A549
  GI50: 9.35 µM (inactive)
LOX IMVI
  GI50: 5.86 µM (inactive)
Malme-3M
  GI50: 12.6 µM (inactive)
IGROV-1
  GI50: 4.89 µM (inactive)
NCI-H522
  GI50: 12.2 µM (inactive)
SK-MEL-2
  GI50: 8.59 µM (inactive)
SR
  GI50: 1.01 µM (active)
T47D
  GI50: 3.72 µM (inactive)
CCRF-CEM
  GI50: 2.82 µM (inactive)
BT-549
  GI50: 12.5 µM (inactive)
UACC-257
  GI50: 5.68 µM (inactive)
HL-60
  GI50: 207 nM (active)
ACHN
  GI50: 4.15 µM (inactive)
SK-MEL-5
  GI50: 14.9 µM (inactive)
A498
  GI50: 16.1 µM (inactive)
NCI/ADR-RES
  GI50: 11.3 µM (inactive)
MCF7
  GI50: 3.22 µM (inactive)
OVCAR-4
  GI50: 5.93 µM (inactive)
HOP-62
  GI50: 14.4 µM (inactive)
HCT-116
  GI50: 2.7 µM (inactive)
NCI-H23
  GI50: 22.5 µM (inactive)
PC-3
  GI50: 6.89 µM (inactive)
OVCAR-3
  GI50: 7.53 µM (inactive)
SNB-75
  GI50: 16.1 µM (inactive)
SF-539
  GI50: 2.3 µM (inactive)
SK-OV-3
  GI50: 15.7 µM (inactive)
U-251
  GI50: 11.6 µM (inactive)
COLO 205
  GI50: 2.79 µM (inactive)
UO-31
  GI50: 3.83 µM (inactive)
SN12C
  GI50: 5.08 µM (inactive)
HT-29
  GI50: 2.73 µM (inactive)
OVCAR-8
  GI50: 7.83 µM (inactive)
NCI-H460
  GI50: 15.4 µM (inactive)
MDA-MB-231
  GI50: 11.6 µM (inactive)
RXF 393
  GI50: 7.91 µM (inactive)
K562
  GI50: 3.41 µM (inactive)
M14
  GI50: 4.35 µM (inactive)
NCI-H226
  GI50: 9.1 µM (inactive)
RPMI-8226
  GI50: 2.77 µM (inactive)
MDA-N
  GI50: 4.27 µM (inactive)
SF-268
  GI50: 5.18 µM (inactive)

## Cc1ccc([N+](=O)[O-])cc1S(=O)(=O)Nc1ccc(C2=NOC(c3ccccc3O)C2)cc1 (stereo unspecified)
HOP-92
  GI50: 26.2 µM (inactive)
CAKI-1
  GI50: 9.42 µM (inactive)
HCC 2998
  GI50: 7.01 µM (inactive)
MDA-MB-435
  GI50: 1.01 µM (active)
OVCAR-5
  GI50: 33.4 µM (inactive)
SF-295
  GI50: 3.85 µM (inactive)
SK-MEL-28
  GI50: 12.8 µM (inactive)
Hs-578T
  GI50: 9.98 µM (inactive)
786-0
  GI50: 8.65 µM (inactive)
UACC-62
  GI50: 2.97 µM (inactive)
EKVX
  GI50: 17.1 µM (inactive)
DU-145
  GI50: 13.3 µM (inactive)
KM12
  GI50: 3.16 µM (inactive)
SNB-19
  GI50: 3.31 µM (inactive)
HCT-15
  GI50: 3.44 µM
TK-10
  GI50: 18.3 µM (inactive)
SW-620
  GI50: 4.18 µM (inactive)
A549
  GI50: 4.97 µM (inactive)
LOX IMVI
  GI50: 9.95 µM (inactive)
Malme-3M
  GI50: 3.95 µM (inactive)
IGROV-1
  GI50: 7.43 µM (inactive)
NCI-H522
  GI50: 1.29 µM (inactive)
SK-MEL-2
  GI50: 2.74 µM (inactive)
SR
  GI50: 0.577 µM (active)
T47D
  GI50: 6 µM (inactive)
CCRF-CEM
  GI50: 8.93 µM (inactive)
BT-549
  GI50: 6.27 µM (inactive)
UACC-257
  GI50: 5.97 µM (inactive)
HL-60
  GI50: 2170 nM (inactive)
ACHN
  GI50: 13.1 µM (inactive)
SK-MEL-5
  GI50: 4.68 µM (inactive)
A498
  GI50: 2.84 µM (inactive)
NCI/ADR-RES
  GI50: 2.54 µM (inactive)
MCF7
  GI50: 3.33 µM (inactive)
OVCAR-4
  GI50: 3 µM (inactive)
HOP-62
  GI50: 5.12 µM (inactive)
HCT-116
  GI50: 4.54 µM (inactive)
NCI-H23
  GI50: 10.4 µM (inactive)
PC-3
  GI50: 4.74 µM (inactive)
OVCAR-3
  GI50: 3.72 µM (inactive)
SNB-75
  GI50: 3.6 µM (inactive)
SF-539
  GI50: 4.58 µM (inactive)
SK-OV-3
  GI50: 15.3 µM (inactive)
COLO 205
  GI50: 3.54 µM (inactive)
UO-31
  GI50: < 0.01 µM (active)
MOLT-4
  GI50: 2.76 µM (inactive)
SN12C
  GI50: 12.3 µM (inactive)
HT-29
  GI50: 4.61 µM (inactive)
OVCAR-8
  GI50: 31.2 µM (inactive)
NCI-H460
  GI50: 4.09 µM (inactive)
MDA-MB-231
  GI50: 4.5 µM (inactive)
RXF 393
  GI50: 2.26 µM (inactive)
K562
  GI50: 2.25 µM (inactive)
M14
  GI50: 2.19 µM (inactive)
NCI-H226
  GI50: 5.82 µM (inactive)
RPMI-8226
  GI50: 4.26 µM (inactive)
MDA-N
  GI50: 1.56 µM (inactive)
SF-268
  GI50: 8.61 µM (inactive)
